The nature of data set [1]: PRG release from formulation. The format is physicochemical. To be noted: as an aqueous eye drop.
The conditions of data set [2]: PRG in an oral solution; cited from earlier work.
For data set [3] the following is noted: not told; cited from earlier work.
Another data set deals with CACNA2D1 (Homo sapiens, UniProt P54289). Particulars: listed as PRG; cited from earlier work.
The subject of data set [4] is intraocular pressure (IOP). Put plainly: IOP lowering by topically applied pregabalin without microemulsion (aqueous). Format: in vivo.
The test system of a further data set is BXD29 mice. Put plainly: Daily topical PRG ME in BXD29 mice (normal tension glaucoma model): IOP and optic nerve axons. Format: in vivo. The text has this: Objective: An obstacle in this study is the in vivo assessment of any direct neuroprotective effects of PRG that are independent of IOP lowering. […] These characteristics make BXD29 ideal for evaluating the direct neuroprotective properties of PRG on RGCs by eliminating indirect effects that would be mediated through IOP reduction.
We have evidence to show, without wishing to be bound by theory, that topical dosing with our PRG ME is neuroprotective to RGC axons in the ON. We dosed BXD29 mice daily with PRG ME beginning at 5 weeks of age (FIG. 9A) before ON degeneration was marked. […] In contrast, ON from mice dosed with unmedicated ME had loss of axon profiles and increased areas of debris (FIG. 9C). The studies will evaluate the role of PRG as a RGC neuroprotectant and define its cellular mechanism of action.

Data set [5] deals with γ-aminobutyric acid (GABA) receptors. Particulars: cited from earlier work.
Another data set deals with Dutch belted rabbits. Put plainly: Single-drop IOP-lowering efficacy of PRG eye drop formulations. Format: in vivo. As for the experimental part: At 24 hours after dosing, IOP is still reduced by >20%.
Moreover, the combined effect of all three layers of our W/O/W ME is critical for enhancing the efficacy of PRG. […] Using this same model, we will evaluate our optimized formulations from Test 1.1.
Research Design and Methods: Dutch belted rabbits (Envigo Rabbitry; formerly Covance) will be used in this single-dose design study. Rabbits from this rabbitry can have higher baseline IOP values than those purchased from other rabbitries. Rabbits (equally balanced between males and females) will be acclimated to handling and IOP measurements for at least seven days before initiation of the study. Slit-lamp biomicroscopic and fundoscopic examinations will be performed before and after the study. Our top three formulations from Test 1.1 will be tested in this model using our methods^12. The IOP of both eyes will be measured using a rebound tonometer (Tono-Pen AVIA Vet, Reichert) immediately before the formulation application (baseline, 8 am) and at hourly time intervals after application until the IOP returns to baseline. Using a sterile micropipette tip, thirty microliters of the formulation containing PRG ME or blank control will be instilled topically into one eye of each rabbit, while the fellow eye will receive the formulation vehicle, and therefore serve as controls. Rabbits will be dosed daily at 8 am for 21 days, and IOP collected at 8 am (immediately pre-dosing) and at the time at which the maximum IOP reduction is measured (Tmax) using our methods^12. Curves similar to FIG. 16 will be generated. Biocompatibility of the antioxidant-containing formulations will be assessed using with slit lamp biomicroscopy as in FIG. 17. The person performing the studies will be blinded regarding which eye receives the medicated formation and which one receives the blank control for each rabbit. Assuming a power of 80%, and a marginal difference in IOP outcome of 30%, we estimate that this study will require 10 rabbits. We will also evaluate these formulations in C57Bl/6J (B6) mice and cynomolgus monkeys, which will allow for species confirmation and comparison.

Setting [6] is: topically applied PRG, aqueous / initial formulation without ME.
The mark [7] stands for this setting: topically applied PRG, aqueous / initial formulation without ME, listed as PRG.
Setting [8] is: PRG in the absence of the ME (Carbopol 981 gel), single drop.

The values that follow come from patent US20240156765A1, “METHODS OF NEUROPROTECTION AND USES THEREOF” (UNIVERSITY OF TENNESSEE RESEARCH FOUNDATION, priority 2020, published 2024).

Where only a bound is given, the exact number is not on record here.

Chain of CACNA2D1 (P54289 25-1103): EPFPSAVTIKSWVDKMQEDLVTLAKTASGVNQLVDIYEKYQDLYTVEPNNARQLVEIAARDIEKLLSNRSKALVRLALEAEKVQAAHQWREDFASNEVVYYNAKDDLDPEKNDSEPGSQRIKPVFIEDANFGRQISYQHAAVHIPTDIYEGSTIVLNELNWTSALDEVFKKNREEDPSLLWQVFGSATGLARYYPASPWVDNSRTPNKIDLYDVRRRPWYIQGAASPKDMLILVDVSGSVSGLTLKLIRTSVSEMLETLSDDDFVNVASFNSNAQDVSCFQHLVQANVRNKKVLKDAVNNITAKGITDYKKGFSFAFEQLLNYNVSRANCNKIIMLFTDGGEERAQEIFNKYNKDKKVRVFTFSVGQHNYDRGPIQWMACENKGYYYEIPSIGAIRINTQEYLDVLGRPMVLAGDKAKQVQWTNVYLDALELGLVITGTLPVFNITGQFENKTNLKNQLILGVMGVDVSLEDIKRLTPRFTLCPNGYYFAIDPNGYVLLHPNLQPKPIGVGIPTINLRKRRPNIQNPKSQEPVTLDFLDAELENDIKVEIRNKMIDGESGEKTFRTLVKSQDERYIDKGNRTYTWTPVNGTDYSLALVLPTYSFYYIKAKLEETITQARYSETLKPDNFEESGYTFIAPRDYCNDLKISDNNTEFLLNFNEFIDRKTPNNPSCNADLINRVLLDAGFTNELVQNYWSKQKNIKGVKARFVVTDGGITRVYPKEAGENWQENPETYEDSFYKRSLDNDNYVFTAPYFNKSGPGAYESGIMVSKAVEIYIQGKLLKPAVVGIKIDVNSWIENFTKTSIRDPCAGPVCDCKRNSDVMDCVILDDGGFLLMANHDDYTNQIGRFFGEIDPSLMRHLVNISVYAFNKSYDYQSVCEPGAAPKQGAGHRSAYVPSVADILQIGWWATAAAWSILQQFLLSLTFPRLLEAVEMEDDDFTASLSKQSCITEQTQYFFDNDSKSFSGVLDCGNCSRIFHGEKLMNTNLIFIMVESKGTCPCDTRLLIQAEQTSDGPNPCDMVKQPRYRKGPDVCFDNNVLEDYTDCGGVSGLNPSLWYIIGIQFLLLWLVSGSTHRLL

`CC(C)C[C@H](CN)CC(=O)O` [pregabalin] registered a PRG release time in data set [1] of 3 h. Also, the chemical stability in data set [2] is more than 1 year. Besides, the membrane permeability result in data set [3] was “high”. The “affinity for CACNA2D1” value at CACNA2D1 was “high affinity and specificity”. In addition, the “IOP lowering, dose dependence” value is reported as “dose dependent manner” in data set [4] (topical dosing) and “dose dependent manner” with Dutch belted rabbits (topical dosing with PRG, Dutch belted rabbits). Further, the IOP reduction in data set [4] (setting [6]) came to 20%; in data set [4] (setting [7]), 17%; in the data set on Dutch belted rabbits (setting [8]), 30%. Further, the “time at which IOP returns to baseline” value in data set [4] (setting [6]) was not above 7 h; in data set [4] (setting [7]), 6 h; in data set [4] (without the microemulsion), 8 to 10 h; with Dutch belted rabbits (setting [8]), 10 h. Further, in data set [4] (without the microemulsion), the IOP lowering result is “about 20%”. Moreover, the “optic nerve (ON) axons” value in the data set with BXD29 mice (daily topical dosing for 6 weeks from 5 weeks of age) was “prevents degeneration of axons”. Also, the IOP response result in the data set on BXD29 mice (topical dosing, up to 6 weeks daily) is “unresponsive”. Also, in data set [5], the “binding to GABA receptors” value is recorded as “does not bind”. The “AUC of IOP reduction” value with Dutch belted rabbits (PRG in the absence of the ME) turned out to be 38 mmHg·hr.
